Reference: US10265307B2, “Thiazolecarboxamides and pyridinecarboxamide compounds useful as Pim kinase inhibitors” (Incyte Corporation, priority 2013, dated 2019)

How the values were obtained:
Type in all cases: biochemical
Pim-1 = Pim-1 (Homo sapiens (Human), UniProt P11309); assay: Pim-1 kinase assay; conditions: 1 mM ATP; read-out: Pim1 IC50
Experimental: Supplementation of the STOP buffer with beads and stopping the reactions were done under reduced light. Prior to the stopping reactions STOP buffer with beads was pre-incubated for 1 h in the dark at room temperature. After stopping the reactions, plates were incubated for 1 h in the dark at room temperature before reading on a PHERAstar FS plate reader (BMG Labtech) under reduced light.

Pim-2 = Pim-2 (Homo sapiens (Human), UniProt Q9P1W9); assay: Pim-2 kinase assay; conditions: 1 mM ATP; read-out: Pim2 IC50
Pim-3 = Pim-3 (Homo sapiens (Human), UniProt Q86V86); assay: Pim-3 kinase assay; conditions: 1 mM ATP; read-out: Pim3 IC50
Outline: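 AlphaScreen-type assay: […] Pim-3 phosphorylates 0.05 μM biotin-BAD peptide with 1 mM ATP, 1 h at 25 °C, pH 7.5 Tris buffer with MgCl2 and DTT. EDTA stop with phospho-BAD (Ser112) antibody and donor/acceptor beads, 1 h dark incubation before reading.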

Sequence of Pim-2 (Q9P1W9 whole entry): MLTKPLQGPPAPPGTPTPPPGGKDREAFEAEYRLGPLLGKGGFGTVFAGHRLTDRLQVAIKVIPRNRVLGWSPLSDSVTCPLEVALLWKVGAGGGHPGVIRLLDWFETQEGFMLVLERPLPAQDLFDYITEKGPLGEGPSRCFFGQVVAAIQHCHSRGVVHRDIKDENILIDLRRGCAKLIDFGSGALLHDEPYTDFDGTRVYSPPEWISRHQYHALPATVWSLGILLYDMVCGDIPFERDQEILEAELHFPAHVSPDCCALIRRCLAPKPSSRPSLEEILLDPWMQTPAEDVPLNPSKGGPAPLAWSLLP
Sequence of Pim-1 (P11309 whole entry): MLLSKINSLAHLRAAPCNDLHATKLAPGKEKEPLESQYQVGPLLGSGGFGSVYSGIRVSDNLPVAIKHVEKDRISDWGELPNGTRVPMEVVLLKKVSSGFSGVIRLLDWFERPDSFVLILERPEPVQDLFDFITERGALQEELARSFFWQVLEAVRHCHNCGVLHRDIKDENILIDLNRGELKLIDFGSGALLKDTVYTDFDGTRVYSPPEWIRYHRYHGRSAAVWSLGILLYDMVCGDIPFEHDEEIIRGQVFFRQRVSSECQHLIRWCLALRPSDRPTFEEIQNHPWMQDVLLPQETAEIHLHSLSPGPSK

Compound	IC50 (Pim-1) [µM]	IC50 (Pim-2) [µM]	IC50 (Pim-3) [µM]
CCOc1cc(F)c(-c2nc(C(=O)Nc3cnc4c(c3N3C[C@@H](N)[C@H](O)[C@@H](C)C3)CCC4O)ccc2F)c(F)c1 (single isomer, unassigned) [51 (Diastereoisomer 2)]	≤ 0.1	≤ 0.1	≤ 0.1
COc1ccc(F)c(-c2nc(C(=O)Nc3cnc4c(c3N3C[C@H](C)C[C@H](N)C3)CCC4O)ccc2F)c1F (single isomer, unassigned) [56 (Diastereoisomer 1)]	≤ 0.1	≤ 0.1	≤ 0.1
N[C@H]1CCCN(c2c(NC(=O)c3csc(-c4c(F)cccc4F)n3)cnc3sccc23)C1 [Example 4, N-{4-[(3S)-3-Aminopiperidin-1-yl]thieno[2,3-b]pyridin-5-yl}-2-(2,6-difluorophenyl)-1,3-thiazole-4-carboxamide]	≤ 0.1	> 2	≤ 0.1
N[C@H]1CCCN(c2c(NC(=O)c3csc(-c4c(F)cccc4F)n3)cnc3ccccc23)C1 [Example 2, N-{4-[(3S)-3-Aminopiperidin-1-yl]quinolin-3-yl}-2-(2,6-difluorophenyl)-1,3-thiazole-4-carboxamide]	> 0.04	> 2	> 0.04
COCc1cc(F)c(-c2nc(C(=O)Nc3cnc4c(c3N3C[C@@H](N)[C@H](O)[C@@H](C)C3)CCC4O)ccc2F)c(F)c1 (single isomer, unassigned) [66 (Diastereoisomer 2)]	≤ 0.1	≤ 0.1	≤ 0.1
Nc1ncc(-c2c(F)cccc2F)nc1C(=O)Nc1cnc2c(c1N1CCC[C@H](N)C1)CCC2O (single isomer, unassigned) [62 (Diastereoisomer 2)]	≤ 0.1	0.1 to 1	≤ 0.1
CC1(O)CCc2c1ncc(NC(=O)c1nc(-c3c(F)cccc3F)sc1N)c2N1CCC[C@H](N)C1 (single isomer, unassigned) [19 (Diastereoisomer 1)]	≤ 0.1	> 2	0.1 to 1
N[C@H]1CCCN(c2c(NC(=O)c3csc(-c4c(F)cccc4F)n3)cnc3[nH]ncc23)C1 [Example 35, N-{4-[(3S)-3-aminopiperidin-1-yl]-1H-pyrazolo[3,4-b]pyridin-5-yl}-2-(2,6-difluorophenyl)-1,3-thiazole-4-carboxamide]	> 0.04	> 2	> 0.04
N[C@H]1CCCN(c2c(NC(=O)c3ccc(F)c(-c4c(F)cccc4F)n3)cnc3c2CCC3=O)C1 [Example 50, N-{4-[(3S)-3-Aminopiperidin-1-yl]-7-oxo-6,7-dihydro-5H-cyclopenta[b]pyridin-3-yl}-6-(2,6-difluorophenyl)-5-fluoropyridine-2-carboxamide]	≤ 0.1	0.1 to 1	≤ 0.1
COc1ccc(F)c(-c2nc(C(=O)Nc3cnc4c(c3N3CCC[C@H](N)C3)CCC4O)ccc2F)c1F (single isomer, unassigned) [55 (Diastereoisomer 1)]	≤ 0.1	0.1 to 1	≤ 0.1
C[C@@H]1C[C@H](N)CN(c2c(NC(=O)c3ccc(F)c(-c4c(F)cc([S+](C)[O-])cc4F)n3)cnc3c2CCC3O)C1 (single isomer, unassigned) [60 (Diastereoisomer 2)]	≤ 0.1	0.1 to 1	≤ 0.1
COCc1cc(F)c(-c2nc(C(=O)Nc3cnc4c(c3N3C[C@H](C)C[C@H](N)C3)CCC4O)ccc2F)c(F)c1 (single isomer, unassigned) [64 (Diastereoisomer 2)]	≤ 0.1	≤ 0.1	≤ 0.1
N#CC1CCc2c1ncc(NC(=O)c1nc(-c3c(F)cccc3F)sc1N)c2N1CCC[C@H](N)C1 (single isomer, unassigned) [18 (Diastereoisomer 2)]	≤ 0.1	0.1 to 1	≤ 0.1
Nc1sc(-c2c(F)cccc2F)nc1C(=O)Nc1cnc2c(c1N1CCC[C@H](N)C1)CCO2 [Example 9, 5-Amino-N-{4-[(3S)-3-aminopiperidin-1-yl]-2,3-dihydrofuro[2,3-b]pyridin-5-yl}-2-(2,6-difluorophenyl)-1,3-thiazole-4-carboxamide]	≤ 0.1	≤ 0.1	≤ 0.1
C[C@H]1CN(c2c(NC(=O)c3ccc(F)c(-c4c(F)cccc4F)n3)cnc3c2CCO3)C[C@@H](N)[C@@H]1O [Example 41, N-{4-[(3R,4R,5S)-3-Amino-4-hydroxy-5-methylpiperidin-1-yl]-2,3-dihydrofuro[2,3-b]pyridin-5-yl}-6-(2,6-difluorophenyl)-5-fluoropyridine-2-carboxamide]	≤ 0.1	≤ 0.1	≤ 0.1
N[C@H]1CCCN(c2c(NC(=O)c3ccc(F)c(-c4c(F)cccc4F)n3)cnc3c2CCC3)C1 [Example 21, N-{4-[(3S)-3-Aminopiperidin-1-yl]-6,7-dihydro-5H-cyclopenta[b]pyridin-3-yl}-6-(2,6-difluorophenyl)-5-fluoropyridine-2-carboxamide]	≤ 0.1	≤ 0.1	≤ 0.1
Nc1sc(-c2c(F)cccc2F)nc1C(=O)Nc1cnc2c(c1N1C[C@@H](N)C[C@@H](C(F)(F)F)C1)CCO2 [Example 42, 5-Amino-N-{4-[(3S,5R)-3-amino-5-(trifluoromethyl)piperidin-1-yl]-2,3-dihydrofuro[2,3-b]pyridin-5-yl}-2-(2,6-difluorophenyl)-1,3-thiazole-4-carboxamide]	≤ 0.1	≤ 0.1	≤ 0.1
Nc1sc(-c2c(F)cccc2F)nc1C(=O)Nc1cnc2c(c1N1CC[C@@H](O)[C@@H](N)C1)CCC2 (single isomer, unassigned) [Example 26]	≤ 0.1	> 2	≤ 0.1
Nc1sc(-c2c(F)cccc2F)nc1C(=O)Nc1cnc2ccccc2c1N1CCC[C@H](N)C1 [Example 1, 5-Amino-N-{4-[(3S)-3-aminopiperidin-1-yl]quinolin-3-yl}-2-(2,6-difluorophenyl)-1,3-thiazole-4-carboxamide]	≤ 0.1	0.277	≤ 0.1
C[C@@H]1C[C@H](N)CN(c2c(NC(=O)c3ccc(F)c(-c4c(F)cccc4F)n3)cnc3c2CCC3O)C1 (single isomer, unassigned) [45 (Diastereoisomer 1)]	≤ 0.1	≤ 0.1	≤ 0.1
COCc1cc(F)c(-c2nc(C(=O)Nc3cnc4c(c3N3C[C@@H](N)[C@H](O)[C@@H](C)C3)CCC4O)ccc2F)c(F)c1 (single isomer, unassigned) [66 (Diastereoisomer 1)]	≤ 0.1	≤ 0.1	≤ 0.1
C[C@H]1CN(c2c(NC(=O)c3ccc(F)c(-c4c(F)cccc4F)n3)cnc3c2CCC3O)C[C@@H](N)[C@@H]1O (mixture of isomers) [Example 37, N-{4-[(3R,4R,5S)-3-Amino-4-hydroxy-5-methylpiperidin-1-yl]-7-hydroxy-6,7-dihydro-5H-cyclopenta[b]pyridin-3-yl}-6-(2,6-difluorophenyl)-5-fluoropyridine-2-carboxamide]	≤ 0.1	≤ 0.1	≤ 0.1
C[C@H]1CN(c2c(NC(=O)c3ccc(F)c(-c4c(F)cccc4F)n3)cnc3c2CCC3O)C[C@@H](N)[C@@H]1O (single isomer, unassigned) [37 (Diastereoisomer 1)]	≤ 0.1	≤ 0.1	≤ 0.1
CSc1cc(F)c(-c2nc(C(=O)Nc3cnc4c(c3N3CCC[C@H](N)C3)CCC4O)ccc2F)c(F)c1 (single isomer, unassigned) [58 (Diastereoisomer 2)]	≤ 0.1	0.1 to 1	≤ 0.1
N[C@H]1CCCN(c2c(NC(=O)c3csc(-c4c(F)cccc4F)n3)cnc3c2CCC3O)C1 (single isomer, unassigned) [16 (Diastereoisomer 1)]	≤ 0.1	> 2	≤ 0.1
Nc1sc(-c2c(F)cccc2F)nc1C(=O)Nc1cnc2c(c1N1C[C@@H](N)C[C@@H](C(F)(F)F)C1)CCC2O (single isomer, unassigned) [44 (Diastereoisomer 2)]	≤ 0.1	≤ 0.1	≤ 0.1
C[C@@H]1C[C@H](N)CN(c2c(NC(=O)c3ccc(F)c(-c4c(F)cc(OC5CCCOC5)cc4F)n3)cnc3c2CCC3O)C1 (single isomer, unassigned) [70 (Diastereoisomer 2)]	≤ 0.1	≤ 0.1	≤ 0.1
C[C@H]1CN(c2c(NC(=O)c3nc(-c4c(F)cccc4F)sc3N)cnc3c2CCO3)C[C@@H](N)[C@]1(C)O [Example 76, 5-Amino-N-{4-[(3R,4R,5S)-3-amino-4-hydroxy-4,5-dimethylpiperidin-1-yl]-2,3-dihydrofuro[2,3-b]pyridin-5-yl}-2-(2,6-difluorophenyl)-1,3-thiazole-4-carboxamide]	≤ 0.1	≤ 0.1	≤ 0.1
C[C@H]1CN(c2c(NC(=O)c3ccc(F)c(-c4c(F)cccc4F)n3)cnc3c2CCC3O)C[C@@H](N)C1(C)O (single isomer, unassigned) [63 (Diastereoisomer 2)]	≤ 0.1	≤ 0.1	≤ 0.1
Nc1sc(-c2c(F)cccc2F)nc1C(=O)Nc1cnc2ccsc2c1N1CC[C@@H](O)[C@H](N)C1 (single isomer, unassigned) [Example 29, 5-Amino-N-{7-[3,4-trans-3-amino-4-hydroxypiperidin-1-yl]thieno[3,2-b]pyridin-6-yl}-2-(2,6-difluorophenyl)-1,3-thiazole-4-carboxamide]	≤ 0.1	0.1 to 1	≤ 0.1
